Test results taken from US6511811B1, “Protein kinase C antagonist related to insulin receptor” (The Regents of the University of California, priority 1995, dated 2003).
Ends that are not written are not given here.

Key:
[1] = system: insulin receptor kinase activity; conditions: incubation of cells with the inhibitor; Mosthaf et al.; cited from earlier work
[2] = system: HIRcB cells; test: Microinjection of insulin receptor-derived peptides, insulin-stimulated DNA synthesis (BrDU incorporation); type: cell-based, Rat; conditions: FIG. 13; for Insulin-stimulated DNA synthesis: high glucose (25 mM); for Insulin-stimulated DNA synthesis / DNA synthesis in insulin-stimulated cells: peptide 10 mM microinjected, 100 ng/ml insulin; for DNA synthesis in insulin-stimulated cells: normal glucose (5 mM)
Method: HIRcB cells were grown to sub-confluence on glass coverslips in D-MEM medium containing normal (5 mM) or high (25 mM) glucose and rendered quiescent by serum deprivation for 24 h. Synthetic cyclo-peptides were derived from the human insulin receptor, containing sequence […] (SEQ ID NO:5) (Serine-1035) and […] (SEQ ID NO:1) (Serine-1270) were synthesized using methods well known in the art. The peptides were dissolved in microinjection buffer containing 5 mM NaPO4 and 100 mM KCl, pH 7.2, to a final concentration of 10 mM. All microinjected reagents contained rabbit IgG (5 mg/ml) to allow the identification […] cells. Samples were microinjected into the cell cytoplasm using an automated microinjection system at a typical needle pressure of about 100 hectopascals resulting in the introduction of 10^5 molecules of IgG.
Approximately 1 h after microinjection, the cells were stimulated with 100 ng/ml insulin and […] BrDU was added. Cells were incubated at 37° C. for an additional 16 h, and then fixed and stained using a monoclonal anti-BrDU antibody. Injected cells were identified with fluorescein isothiocyanate-conjugated donkey anti-rabbit IgG. Nuclear BrDU incorporation was detected with tetramethylrhodamine isothiocyanate-conjugated donkey anti-mouse IgG. The cells were analyzed by fluorescence microscopy.

[3] = system: HIRcB cells; test: Insulin-stimulated DNA synthesis (BrDU incorporation) with PKC inhibitors; type: cell-based, Rat; conditions: microinjection of the inhibitor peptide, high glucose 25 mM; FIG. 11
Method: HIRcB or ΔCT cells were cultured on acid-washed glass coverslips, grown to semi-confluence, and then starved in serum-free DME with 1 mM glucose. The peptide was dissolved in microinjection buffer containing 5 mM NaPO4 and 100 mM KCl, pH 7.4. The cells were microinjected with the PKC inhibitor peptide using glass capillary needles. Approximately 10 femtoliters of this solution was introduced into each cell. The injection included 1×10^6 molecules of IgG as marker for microinjection.
Two hours after microinjection, cells were incubated with BrDU plus various concentrations of growth factors for 16 h at 37° C. The cells were fixed with acid alcohol (90% ethanol, 5% acetic acid) for 20 min at 22° C., and then incubated with mouse monoclonal anti-BrDU antibody for 1 h at 22° C. […] After coverslips were mounted, the cells were analyzed and photographed with an Axiophot fluorescence microscope (Zeiss). […]
The effects of high glucose upon insulin-induced DNA synthesis were examined by first exposing cells to high glucose for 1 h, and then to insulin and BrDU for an additional 18 h. High glucose decreased DNA synthesis in insulin-stimulated cells by 30%, as measured by BrDU incorporation (FIG. 10).

[4] = system: insulin receptor; test: 32P labelling and two-dimensional tryptic phosphopeptide analysis of insulin receptor; type: cell-based, human; conditions: stimulation of 32P-labelled HIRcB cells; FIG. 8
Method: HIRcB cells were serum-starved for 16 h and then incubated in phosphate-free DMEM containing 2 mCi/ml ^32P-orthophosphate for 3 h. The cells were then stimulated with high glucose (25 mM) or insulin as indicated. The cells were lysed, and the insulin receptor was immunoprecipitated using […] antibody 83-14 as described. The washed immunoprecipitates were analyzed by SDS electrophoresis. The labeled β-subunit was visualized by autoradiography, excised from the gels and recovered by electroelution.
Polyacrylamide-gel pieces containing ^32P-labeled IR and IRS-1 following in vitro phosphorylation were electroeluted in 20 mM Tris-HCl, pH 8.0, 2 mM EDTA, 0.1% SDS, and 0.1% 2-mercaptoethanol for 4 h. Eluted protein was precipitated with four volumes of acetone at −80° C. for 60 min followed by centrifugation at room temperature for 10 min at 10,000 g. The pellet was dried and digested with 10 μg of TPCK-treated trypsin (Worthington Diagnostic Systems, Freehold, N.J.) in 100 μl of 100 mM N-ethylmorpholine acetate (NMA), pH 8.2, for 24 h at 37° C. A further 10 μg of TPCK-treated trypsin was added and digestion continued for 12 h. The peptides were lyophilized, resuspended with water, and re-lyophilized at least three times. The ^32P-labeled tryptic peptides were then resuspended in 5 μl of electrophoresis buffer and spotted onto thin layer cellulose plates. […]

| Molecule | Effect on hyperglycemia-induced inhibition of insulin receptor kinase activity [1] | Insulin-stimulated DNA synthesis [2] | DNA synthesis in insulin-stimulated cells [2] | other results |
| --- | --- | --- | --- | --- |
| polymyxin B | is inhibited | – | – | – |
| DDLHPSFPEVS (also: cyclized; listed as Homo sapiens) [Ser-1270] | – | significantly increased insulin-stimulated DNA synthesis | slightly increased DNA synthesis | Increase in DNA synthesis compared between the two injected peptides ([2]; normal and high glucose, in each instance): greater than in Ser-1035 peptide-injected cells |
| KTVNESASLRE (also: cyclized; listed as Homo sapiens) [Ser-1035] | – | significantly increased insulin-stimulated DNA synthesis | slightly increased DNA synthesis | – |
| CC1CNCCN1S(=O)(=O)c1cccc2cnccc12 (stereo not drawn) [H7] | is inhibited | – | – | – |
| RFARKGALRQKNV [peptide 19-31] | – | – | – | Reversal of high glucose inhibition of insulin-stimulated DNA synthesis (BrDU incorporation) [3]: partially reversed inhibition of DNA synthesis |
| CCCCCCCCCCCCCC(=O)O[C@@H]1[C@@H](C)[C@@]2(O)[C@@H](C=C(CO)C[C@]3(O)C(=O)C(C)=C[C@@H]23)[C@@H]2C(C)(C)[C@]12OC(C)=O [Phorbol ester] | – | – | – | Increase of insulin receptor phosphorylation [4]: 1.5 fold |
